This passage reports IC50 results from PubChem BioAssay AID624425 (The Scripps Research Institute Molecular Screening Center, 2012).

This assay has as its target Serine/threonine-protein phosphatase 5 (Homo sapiens) (UniProt P53041). Briefly: PP5 inhibitor potency, OMFP substrate, dose response, biochemical, fluorescence, round 5, powder samples (AID 624425). The settings on record: purified PP5c, OMFP dephosphorylation.

Chain of Serine/threonine-protein phosphatase 5 (Homo sapiens) (P53041 whole entry, looked up): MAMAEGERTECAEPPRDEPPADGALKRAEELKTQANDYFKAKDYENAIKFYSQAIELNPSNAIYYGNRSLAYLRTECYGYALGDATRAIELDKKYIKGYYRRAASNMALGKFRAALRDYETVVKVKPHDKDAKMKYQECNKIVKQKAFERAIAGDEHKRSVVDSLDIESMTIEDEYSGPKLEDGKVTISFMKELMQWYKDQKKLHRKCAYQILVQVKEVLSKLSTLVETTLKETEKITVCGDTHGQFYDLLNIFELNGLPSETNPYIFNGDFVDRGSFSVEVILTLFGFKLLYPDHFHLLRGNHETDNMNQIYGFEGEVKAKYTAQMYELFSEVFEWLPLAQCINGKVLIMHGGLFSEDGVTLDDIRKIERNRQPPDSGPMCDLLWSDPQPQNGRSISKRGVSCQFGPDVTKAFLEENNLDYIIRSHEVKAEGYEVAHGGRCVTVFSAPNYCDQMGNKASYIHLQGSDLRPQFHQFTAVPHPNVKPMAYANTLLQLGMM

As for `O=C(O)c1n[nH]nc1-c1cccc(F)c1`, the IC50 is 17.8 µM. Regarding `O=C(O)c1n[nH]nc1-c1ccccc1F`, the half-inhibitory concentration (IC50) was 7.75 µM.

As for `O=C(O)c1n[nH]nc1-c1ccc(F)cc1`, the IC50 is 24.1 µM. In the case of `O=C(O)c1n[nH]nc1-c1ccccc1O` it was 7.74 µM. Turning to `COc1cccc(-c2n[nH]nc2C(=O)O)c1`, the IC50 was 10.9 µM.

As for `COc1ccccc1-c1n[nH]nc1C(=O)O`, the IC50 was 6 µM.

Regarding `COc1ccc(-c2n[nH]nc2C(=O)O)cc1`, the IC50 was 23.1 µM.
